Data: PMC6301270 (MedChemComm, 2018)

What follows are molecules tested on T.b. brucei (strain 427) bloodstream form parasites (assay: T.b. brucei single concentration screen (10 μM)). Conditions: Trypanosoma brucei, read-out: T.b.brucei % viability (10 µM).
COc1ccccc1CNC(=O)c1cc(C2CC2)nc2c1cnn2C(C)C [MMV020517, COc1ccccc1CNC(=O)c2cc(nc3c2cnn3C(C)C)C4CC4] gave a viability at 10 µM of 93%. For Cc1cc2ccccc2n1CC(=O)N1CC(C(=O)N2CCCCC2)Oc2ccccc21 (centres unmarked) [MMV020520, Cc1cc2ccccc2n1CC(=O)N3CC(Oc4ccccc34)C(=O)N5CCCCC5], the viability at 10 µM was 69%. O=C(NC1CC1)c1ccc(N2CCOc3ccc(Cl)cc32)s1 [MMV020537, Clc1ccc2OCCN(c3ccc(s3)C(=O)NC4CC4)c2c1] showed a viability at 10 µM of 97%. Work on CC(C)C(NC(=O)Cc1cccc2ccccc12)C(=O)Nc1cccc(C#N)c1 (centres unmarked) [MMV020591, CC(C)C(NC(=O)Cc1cccc2ccccc12)C(=O)Nc3cccc(c3)C#N] yielded a viability at 10 µM of 93%. Molecule Cc1noc(C)c1C(=O)N1CCCC(c2[nH]c3c(C)cccc3c2-c2ccncc2)C1 (centres unmarked) [MMV020623, Cc1onc(C)c1C(=O)N2CCCC(C2)c3[nH]c4c(C)cccc4c3c5ccncc5] has a viability at 10 µM of 78%. For COc1ccc(-c2cncc3ccc(C(=O)NCCCn4ccnc4)nc23)cc1 [MMV020670, COc1ccc(cc1)c2cncc3ccc(nc23)C(=O)NCCCn4ccnc4], the viability at 10 µM was 51%. Molecule COc1ccc(Cl)cc1NC(=O)CN(C)C(=O)c1cnn(-c2ccccc2)n1 [MMV020710, COc1ccc(Cl)cc1NC(=O)CN(C)C(=O)c2cnn(n2)c3ccccc3] has a viability at 10 µM of 103%. CC(C)(C)c1cc(C(=O)Nc2cccnc2)cc(C(=O)Nc2cccnc2)c1 [MMV020982, CC(C)(C)c1cc(cc(c1)C(=O)Nc2cccnc2)C(=O)Nc3cccnc3] gave a viability at 10 µM of 83%. Work on CO/C=C(/C(=O)OC)c1ccccc1Oc1cc(Oc2ccccc2C#N)ncn1 [MMV021057, CO\C=C(\C(=O)OC)/c1ccccc1Oc2cc(Oc3ccccc3C#N)ncn2] yielded a viability at 10 µM of 103%. Work on Cc1cc(NCC(C)C)c2n[nH]c(-c3ccccc3)c2n1 [MMV021375, CC(C)CNc1cc(nc2c([nH]nc12)-c1ccccc1)C] yielded a viability at 10 µM of 64%. Cc1cc(NCCc2ccccc2)nc(NC(=N)Nc2ccc(Cl)cc2)n1 [MMV021660, Cc1cc(NCCc2ccccc2)nc(NC(=N)Nc3ccc(Cl)cc3)n1] showed a viability at 10 µM of 47%. CCN(CC)CCCN1CCN(C(=O)c2cccc(-c3noc(C(F)(F)F)n3)c2)CC1 [MMV022236, CCN(CC)CCCN1CCN(CC1)C(=O)c2cccc(c2)c3noc(n3)C(F)(F)F] showed a viability at 10 µM of 103%. c1ccc2c(c1)CN(CC1CC1)CC1(CCN(Cc3c[nH]c4cnccc34)CC1)O2 [MMV023183, C(C1CC1)N2Cc3ccccc3OC4(CCN(Cc5c[nH]c6cnccc56)CC4)C2] showed a viability at 10 µM of 93%. Cc1nc(-c2cccc(NCc3ccccc3)c2)[nH]c1C [MMV023227, Cc1nc([nH]c1C)c2cccc(NCc3ccccc3)c2] was tested, and the viability at 10 µM was 102%. For Nc1ncc(-c2cn[nH]c2)cc1-c1nc2cc(Cl)cnc2[nH]1 [MMV023370, Nc1ncc(cc1c2nc3cc(Cl)cnc3[nH]2)c4cn[nH]c4], the viability at 10 µM was 88%. Molecule O=C(NC1CCN(c2ccnc3ccccc23)C1)c1cccc(C(F)(F)F)c1 (centres unmarked) [MMV023388, FC(F)(F)c1cccc(c1)C(=O)NC2CCN(C2)c3ccnc4ccccc34] has a viability at 10 µM of 78%. NS(=O)(=O)c1cccc(-c2ccc3ncc(N4CCOCC4)nc3c2)c1 [MMV023860, NS(=O)(=O)c1cccc(c1)c2ccc3ncc(nc3c2)N4CCOCC4] was tested, and the viability at 10 µM was 110%. Work on CC(C)(C)c1cc(C(=O)N2CCN(c3nccnc3C#N)CC2)n(Cc2ccccc2)n1 [MMV023949, CC(C)(C)c1cc(C(=O)N2CCN(CC2)c3nccnc3C#N)n(Cc4ccccc4)n1] yielded a viability at 10 µM of 115%. Work on O=C(Nc1cccc(-c2ccc(NCCCN3CCCC3)nc2)c1)c1ccccc1 [MMV023953, O=C(Nc1cccc(c1)c2ccc(NCCCN3CCCC3)nc2)c4ccccc4] yielded a viability at 10 µM of 57%. Molecule c1cncc(NCc2ccc(-c3cc4ccncc4cc3OC3CCNCC3)s2)c1 [MMV023969, C(Nc1cccnc1)c2ccc(s2)c3cc4ccncc4cc3OC5CCNCC5] has a viability at 10 µM of 79%. In the case of COc1ccc(-c2cnc3ccc(N4CCCC4)nn23)cc1OC [MMV023985, COc1ccc(cc1OC)c2cnc3ccc(nn23)N4CCCC4], the viability at 10 µM is reported as 91%. NS(=O)(=O)c1cncc(-c2ccc3nccc(-c4cn[nH]c4)c3n2)c1 [MMV024101, NS(=O)(=O)c1cncc(c1)c2ccc3nccc(c4cn[nH]c4)c3n2] showed a viability at 10 µM of 36%. Molecule Cc1ccc(S(=O)(=O)n2cc(-c3ccnc(N)c3)c3cc(Br)cnc32)cc1 [MMV024114, Cc1ccc(cc1)S(=O)(=O)n2cc(c3ccnc(N)c3)c4cc(Br)cnc24] has a viability at 10 µM of 52%. CN(C)CCNC(=O)N1CCCN(c2ncnc3cc(-c4ccccc4)sc23)CC1 [MMV024195, CN(C)CCNC(=O)N1CCCN(CC1)c2ncnc3cc(sc23)c4ccccc4] was tested, and the viability at 10 µM was 79%. Molecule O=C(NC1CC1)c1ccc(N2CCC(Cc3ccccc3)CC2)nc1 [MMV024397, O=C(NC1CC1)c2ccc(nc2)N3CCC(Cc4ccccc4)CC3] has a viability at 10 µM of 72%. With O=C(Nc1cccc(Cl)c1)c1cnc(N2CCN(c3ccncc3)CC2)c(Cl)c1 [MMV024406, Clc1cccc(NC(=O)c2cnc(N3CCN(CC3)c4ccncc4)c(Cl)c2)c1] the viability at 10 µM was 63%. In the case of CN(C(=O)c1cc2c(-c3cncnc3)cccc2[nH]1)c1ccccc1 [MMV024443, CN(C(=O)c1cc2c(cccc2[nH]1)c3cncnc3)c4ccccc4], the viability at 10 µM is reported as 59%. Molecule Cc1cccc(C(=O)Nc2ccnc(N(C)C3CCN(CC(C)C)CC3)c2)c1 [MMV024829, CC(C)CN1CCC(CC1)N(C)c2cc(NC(=O)c3cccc(C)c3)ccn2] has a viability at 10 µM of 56%. Work on O=C(Nc1ccc(N2CCNCC2)nc1)c1oc(-c2ccccc2)nc1C(F)(F)F [MMV024937, FC(F)(F)c1nc(oc1C(=O)Nc2ccc(nc2)N3CCNCC3)c4ccccc4] yielded a viability at 10 µM of 77%. Work on CS(=O)(=O)c1cccc(-c2cnc3[nH]cc(-c4ccc(CCC(=O)O)cc4)c3c2)c1 [MMV026020, CS(=O)(=O)c1cccc(c1)c2cnc3[nH]cc(c4ccc(CCC(=O)O)cc4)c3c2] yielded a viability at 10 µM of 61%. In the case of Nc1nccc2ccc(Oc3ccncc3)cc12 [MMV026313, Nc1nccc2ccc(Oc3ccncc3)cc12], the viability at 10 µM is reported as 97%. With CCn1ncc2c(NC3CCOCC3)c(CNC(=O)c3ccnn3C)c(C)nc21 [MMV026356, CCn1ncc2c(NC3CCOCC3)c(CNC(=O)c4ccnn4C)c(C)nc12] the viability at 10 µM was 80%. For OCc1ccc(-c2cncc(Nc3cccc(Cl)c3)c2)cc1 [MMV026468, OCc1ccc(cc1)c2cncc(Nc3cccc(Cl)c3)c2], the viability at 10 µM was 88%. In the case of CC(C)(C)CN1C(=O)C(c2ccccc2)(c2ccccc2)N=C1N [MMV026550, CC(C)(C)CN1C(=NC(C1=O)(c2ccccc2)c3ccccc3)N], the viability at 10 µM is reported as 104%. CC(C)(CN)c1nc(-c2ccc(Cl)c(O)c2)c(-c2ccnc(N)n2)[nH]1 [MMV030734, CC(C)(CN)c1nc(c2ccc(Cl)c(O)c2)c([nH]1)c3ccnc(N)n3] gave a viability at 10 µM of 33%. For CNC(=O)C1Cc2c([nH]c3cc(Cl)ccc23)C2(CCN(CCc3ccccc3)CC2)N1 (centres unmarked) [MMV031011, CNC(=O)C1Cc2c([nH]c3cc(Cl)ccc23)C4(CCN(CCc5ccccc5)CC4)N1], the viability at 10 µM was 106%. In the case of FC(F)(F)c1cccc(-c2nc3c(NCc4ccncc4)nccc3[nH]2)c1 [MMV032967, FC(F)(F)c1cccc(c1)c2nc3c(NCc4ccncc4)nccc3[nH]2], the viability at 10 µM is reported as 79%. O=C1COCc2ccc(Br)cc2N1Cc1ccc(C(F)(F)F)cc1 [MMV032995, FC(F)(F)c1ccc(CN2C(=O)COCc3ccc(Br)cc23)cc1] gave a viability at 10 µM of 113%. Molecule c1ccc(Oc2ccc(-c3cc(N4CCOCC4)[nH]n3)cc2)cc1 [MMV045105, C1CN(CCO1)c2cc(n[nH]2)c3ccc(Oc4ccccc4)cc3] has a viability at 10 µM of 33%. COc1cc(C(F)(F)F)nc2ccc(C)c(N)c12 [MMV047015, COc1cc(nc2ccc(C)c(N)c12)C(F)(F)F] was tested, and the viability at 10 µM was 113%. Molecule N#Cc1ccc(-c2ccc(OCC(N)=O)cc2)cc1 [MMV053220, NC(=O)COc1ccc(cc1)c2ccc(cc2)C#N] has a viability at 10 µM of 68%. In the case of CC(=O)N1CCc2cc3nc(C)cc(C)c3cc21 [MMV054312, CC(=O)N1CCc2cc3nc(C)cc(C)c3cc12], the viability at 10 µM is reported as 91%. In the case of Cc1cc(C)nc(-n2nc(C)cc2Nc2ccccc2)n1 [MMV062221, Cc1cc(C)nc(n1)n2nc(C)cc2Nc3ccccc3], the viability at 10 µM is reported as 103%. For Cc1nn(Cc2ccccc2)c(Cl)c1C(=O)NC1CCCCCC1 [MMV063404, Cc1nn(Cc2ccccc2)c(Cl)c1C(=O)NC3CCCCCC3], the viability at 10 µM was 96%. FC(F)(F)c1nnc2ccc(Cl)nn12 [MMV069458, FC(F)(F)c1nnc2ccc(Cl)nn12] gave a viability at 10 µM of 100%. In the case of O=C1N(Cc2cc3ccccc3s2)CC2CN(Cc3ccccc3)CCN12 (centres unmarked) [MMV084603, O=C1N(Cc2cc3ccccc3s2)CC4CN(Cc5ccccc5)CCN14], the viability at 10 µM is reported as 99%. For O=C(Nc1cnc2ccccc2c1)c1cccc(-n2cnnn2)c1 [MMV084864, O=C(Nc1cnc2ccccc2c1)c3cccc(c3)n4cnnn4], the viability at 10 µM was 80%. Work on COc1cncc(-c2cncc(N3CCN(c4ccncc4)CC3)n2)c1 [MMV085071, COc1cncc(c1)c2cncc(n2)N3CCN(CC3)c4ccncc4] yielded a viability at 10 µM of 79%. O=C(C(Cc1c[nH]c2ccccc12)NS(=O)(=O)c1ccc(Cl)cc1)N1CCCCC1 (centres unmarked) [MMV085210, Clc1ccc(cc1)S(=O)(=O)NC(Cc2c[nH]c3ccccc23)C(=O)N4CCCCC4] was tested, and the viability at 10 µM was 108%. In the case of CCCNC(=O)N1CCC2(CC1)CC(=O)c1cc(C)ccc1O2 [MMV085230, CCCNC(=O)N1CCC2(CC1)CC(=O)c3cc(C)ccc3O2], the viability at 10 µM is reported as 103%. N#Cc1ccc(-c2cnc(N)c(-c3ccc(C(N)=O)cc3)n2)cc1 [MMV085499, NC(=O)c1ccc(cc1)c2nc(cnc2N)c3ccc(cc3)C#N] was tested, and the viability at 10 µM was 31%. O=C(Nc1nnc(-c2ccc(Cl)cc2)o1)c1cccc(C(F)(F)F)c1 [MMV102872, FC(F)(F)c1cccc(c1)C(=O)Nc2oc(nn2)c3ccc(Cl)cc3] was tested, and the viability at 10 µM was 51%. For CCC(C)NC(=O)c1ccc(NC(=O)C2(c3ccccc3)CCCC2)cc1 (centres unmarked) [MMV146306, CCC(C)NC(=O)c1ccc(NC(=O)C2(CCCC2)c3ccccc3)cc1], the viability at 10 µM was 69%. With Cc1cc(Cl)ccc1NC(=O)CCc1ccc(S(=O)(=O)NCC(C)C)cc1 [MMV161996, CC(C)CNS(=O)(=O)c1ccc(CCC(=O)Nc2ccc(Cl)cc2C)cc1] the viability at 10 µM was 97%. COc1ccc(C2(C(=O)Nc3ccc(Br)cc3)CCCC2)cc1 [MMV200748, COc1ccc(cc1)C2(CCCC2)C(=O)Nc3ccc(Br)cc3] was tested, and the viability at 10 µM was 100%. COc1ccc(OC(C)C(=O)Nc2ccc(Cl)cc2C)cc1 (centres unmarked) [MMV202458, COc1ccc(OC(C)C(=O)Nc2ccc(Cl)cc2C)cc1] was tested, and the viability at 10 µM was 94%.
